The test has as its target Coagulation factor XI (Homo sapiens, UniProt P03951). The test can be described thus: Inhibition Assay: The effectiveness of compounds of the present invention as inhibitors of the coagulation factors XIa, Vila, IXa, Xa, Xlla, plasma kallikrein or thrombin, can be determined using a relevant purified serine protease, respectively, and an appropriate synthetic substrate. The rate of hydrolysis of the chromogenic or fluorogenic substrate by the relevant serine protease was measured both in the absence and presence of compounds of the present invention. […] A decrease in the rate of absorbance or fluorescence change in the presence of inhibitor is indicative of enzyme inhibition. Such methods are known to one skilled in the art.

As a reminder, the Ki is a dissociation constant, usually derived from enzyme kinetics or from competition with a known ligand.

SMILES strings stand for the structures.

Coagulation factor XI, sequence (P03951 19-387 limits assumed): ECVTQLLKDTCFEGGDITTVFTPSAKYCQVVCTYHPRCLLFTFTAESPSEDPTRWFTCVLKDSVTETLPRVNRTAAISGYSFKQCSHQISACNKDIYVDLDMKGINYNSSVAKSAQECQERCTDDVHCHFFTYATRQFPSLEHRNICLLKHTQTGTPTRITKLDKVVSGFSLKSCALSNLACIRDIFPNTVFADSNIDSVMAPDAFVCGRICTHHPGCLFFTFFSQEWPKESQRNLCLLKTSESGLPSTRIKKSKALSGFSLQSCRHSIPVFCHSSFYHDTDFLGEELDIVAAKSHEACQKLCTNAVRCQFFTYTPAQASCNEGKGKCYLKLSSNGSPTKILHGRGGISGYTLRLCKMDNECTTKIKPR
Coagulation factor XI, sequence (P03951 388-625 limits assumed): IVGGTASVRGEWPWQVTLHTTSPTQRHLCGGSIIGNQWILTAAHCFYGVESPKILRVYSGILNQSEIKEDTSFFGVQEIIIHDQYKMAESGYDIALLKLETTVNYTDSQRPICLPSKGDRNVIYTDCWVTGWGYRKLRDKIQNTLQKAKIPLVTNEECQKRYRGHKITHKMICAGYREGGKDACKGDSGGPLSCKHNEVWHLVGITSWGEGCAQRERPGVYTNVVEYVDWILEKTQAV

For `COC(=O)Nc1cccc(NC(=O)[C@@H]2c3ccccc3CCN2C(=O)/C=C/c2cc(Cl)ccc2-n2cnnn2)c1`, the Ki came to 2790 nM.
